Measured values as given in EP1344776A1, “5- 2-hydroxy-3-[1-(3-trifluoromethylphenyl)-cyclopropyl]-propionylamino -phtalide and 6- 2-hydroxy-3-[1-(3-trifluoromethylphenyl)-cyclopropyl]-propionylamino -4-methyl-2,3-benzoxazin-1-one derivatives with progesterone receptor modulating activity for use in fertility control, hormone replacement …” (Schering Aktiengesellschaft, priority 2002, dated 2003).
Read-outs that look alike come from different tables or passages of the source.

Columns and labels:
female rats = experiment: Ovulation inhibition test in rat; type: in vivo
Protocol: Before the treatment is started, two […] cycles of female rats (weight: 190 to 210 g) were monitored. Only animals having a regular 4 day-cycle are used for the subsequent test. Starting in the metoestrus, the test compound is administered for 4 days (day 1 to 4) and the cycle is controlled thereafter.
For subcutaneous application, the test compounds are dissolved in benzyl benzoate/castor oil (1+9 v/v) and the daily dose is administered in a volume of 1 ml/kg body weight.
For peroral application, the test compounds are suspended in a carrier liquid (85 mg Myrj^R in 100 ml 0.9 % w/v NaCl solution) and the daily dose is administered in a volume of 2 ml/kg body weight.
On day 4, after the application of the test compound, those animals having estrus or metoestrus are ovariectomized under ether anesthesia on one side. Preparations of the tubes are prepared and they are investigated for ova by means of microscope. On day 5 all animals (intact and partly ovariectomized) are killed with carbon dioxide, the tubes are preserved and analyzed in the same way. It is then determined, as a percentage, in how many animals ovulation was inhibited.

[1] = target: T1, estrogen receptor-α (ERα) (Homo sapiens, UniProt P03372); experiment: Estrogen receptor-α binding; conditions: in vitro
T1 sequence (P03372 1-595): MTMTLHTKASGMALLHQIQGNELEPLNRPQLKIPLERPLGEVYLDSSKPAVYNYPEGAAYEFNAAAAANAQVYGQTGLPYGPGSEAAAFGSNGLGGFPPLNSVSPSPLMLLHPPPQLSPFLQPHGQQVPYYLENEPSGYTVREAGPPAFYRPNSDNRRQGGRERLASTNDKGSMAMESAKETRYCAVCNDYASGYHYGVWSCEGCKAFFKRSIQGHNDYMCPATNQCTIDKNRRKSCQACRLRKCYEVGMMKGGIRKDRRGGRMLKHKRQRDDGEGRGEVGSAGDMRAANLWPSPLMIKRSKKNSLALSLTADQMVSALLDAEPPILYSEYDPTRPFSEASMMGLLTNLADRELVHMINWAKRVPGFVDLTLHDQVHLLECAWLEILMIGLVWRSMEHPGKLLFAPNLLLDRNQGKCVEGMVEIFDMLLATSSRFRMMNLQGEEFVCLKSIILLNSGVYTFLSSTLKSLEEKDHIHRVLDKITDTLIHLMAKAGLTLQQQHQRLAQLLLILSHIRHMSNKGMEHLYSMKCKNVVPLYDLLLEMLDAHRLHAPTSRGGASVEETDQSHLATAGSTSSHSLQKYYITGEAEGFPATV

[2] = Glucocorticoid / anti-glucocorticoid activity in vivo (changes in thymus weight); conditions: concluded from changes in thymus weight
[3] = target: T2, glucocorticoid receptor (GR) (Homo sapiens, UniProt P04150); experiment: Glucocorticoid receptor binding
T2 sequence (P04150 1-777): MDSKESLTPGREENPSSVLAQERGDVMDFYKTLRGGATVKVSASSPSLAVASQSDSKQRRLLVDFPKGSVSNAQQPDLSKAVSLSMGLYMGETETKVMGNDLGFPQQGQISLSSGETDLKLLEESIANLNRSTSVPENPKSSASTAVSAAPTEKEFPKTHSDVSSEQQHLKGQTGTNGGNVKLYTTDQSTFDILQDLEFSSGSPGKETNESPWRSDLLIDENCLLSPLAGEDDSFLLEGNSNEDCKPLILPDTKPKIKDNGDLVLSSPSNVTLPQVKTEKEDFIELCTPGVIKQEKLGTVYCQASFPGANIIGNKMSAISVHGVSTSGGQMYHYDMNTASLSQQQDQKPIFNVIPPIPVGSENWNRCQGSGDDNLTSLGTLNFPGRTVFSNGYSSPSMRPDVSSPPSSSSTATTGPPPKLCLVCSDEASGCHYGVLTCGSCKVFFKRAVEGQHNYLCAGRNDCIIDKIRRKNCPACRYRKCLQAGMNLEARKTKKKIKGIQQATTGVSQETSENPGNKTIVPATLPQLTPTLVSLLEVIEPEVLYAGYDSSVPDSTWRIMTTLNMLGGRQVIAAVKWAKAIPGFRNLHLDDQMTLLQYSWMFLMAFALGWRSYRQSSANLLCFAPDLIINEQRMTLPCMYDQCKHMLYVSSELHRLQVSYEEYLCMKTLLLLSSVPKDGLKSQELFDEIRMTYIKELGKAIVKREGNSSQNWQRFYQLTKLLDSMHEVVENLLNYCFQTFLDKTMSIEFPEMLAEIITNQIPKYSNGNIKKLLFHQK

androgen receptor (AR) = target: T3, androgen receptor (AR) (Homo sapiens, UniProt P10275); experiment: Androgen receptor binding
T3 sequence (P10275 1-920): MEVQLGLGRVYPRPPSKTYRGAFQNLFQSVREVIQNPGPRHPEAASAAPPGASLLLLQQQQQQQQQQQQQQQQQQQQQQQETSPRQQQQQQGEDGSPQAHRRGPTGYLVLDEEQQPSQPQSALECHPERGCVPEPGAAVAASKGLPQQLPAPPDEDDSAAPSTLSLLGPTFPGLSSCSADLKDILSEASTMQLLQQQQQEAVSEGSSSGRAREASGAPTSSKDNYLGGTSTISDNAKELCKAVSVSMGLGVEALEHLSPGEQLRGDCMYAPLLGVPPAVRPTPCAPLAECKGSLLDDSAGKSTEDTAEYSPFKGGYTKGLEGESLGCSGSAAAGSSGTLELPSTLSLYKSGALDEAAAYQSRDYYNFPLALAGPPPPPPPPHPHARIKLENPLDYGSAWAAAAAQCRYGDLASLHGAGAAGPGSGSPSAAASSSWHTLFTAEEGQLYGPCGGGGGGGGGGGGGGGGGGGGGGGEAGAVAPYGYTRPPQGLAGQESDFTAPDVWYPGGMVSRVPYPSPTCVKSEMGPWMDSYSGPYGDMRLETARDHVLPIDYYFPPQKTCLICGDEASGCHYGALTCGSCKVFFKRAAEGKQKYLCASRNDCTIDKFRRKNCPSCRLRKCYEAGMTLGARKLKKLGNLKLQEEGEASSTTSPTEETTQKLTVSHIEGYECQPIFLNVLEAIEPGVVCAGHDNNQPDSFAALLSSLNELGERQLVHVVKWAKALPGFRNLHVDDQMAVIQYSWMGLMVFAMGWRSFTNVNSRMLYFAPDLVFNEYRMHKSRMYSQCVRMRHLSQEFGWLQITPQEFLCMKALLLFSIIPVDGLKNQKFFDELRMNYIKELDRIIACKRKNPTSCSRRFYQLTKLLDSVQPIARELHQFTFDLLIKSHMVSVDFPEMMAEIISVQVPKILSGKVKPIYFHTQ

- affinity for the estrogen receptor-α (ERα) [1]: negligible
- affinity for the glucocorticoid receptor (GR) [3]: very high
- binding affinity for the androgen receptor (AR) (androgen receptor (AR)): moderate
SMILES: O=C1OCc2cc(NC(=O)C(O)(CC3(c4cc(C(F)(F)F)ccc4F)CC3)C(F)(F)F)ccc21 (single isomer, unassigned; (+)) [((+)-1), (+)-5-{2-hydroxy-3-[1-(2-fluoro-5-trifluoromethylphenyl)-cyclopropyl]-2-trifluoromethyl-propionylamino}-phthalide]
- ED50 (female rats; Rattus norvegicus, ovulation inhibition, adult female rats (Table 1-a), read-out: ED50): 0.045 mg/kg
- % Inhibition (female rats; ovulation inhibition, rat, dose 10 µg/kg, days 1 to 4): 0%
- ED50 (female rats; rat (Table 1-b), read-out: Ovulation Inhibition (rat) [ED50]): 0.04 mg/kg
- glucocorticoid or anti-glucocorticoid activity in vivo [2]: does not seem to exhibit any glucocorticoid or any anti-glucocorticoid activity
